The source of these data is US6534313B1, “Genetically modified plants having modulated brassinosteroid signaling” (The Salk Institute for Biological Studies, priority 1999, dated 2003).

The test system of data set [1] is bas1-DphyB-4 and phyB-4 seedlings. As to the kind of experiment: Feeding experiment: metabolism of deuterium-labeled and non-labeled brassinolide in aseptically grown seedlings, GC-MS. The format is in vivo. Particulars: Arabidopsis seedlings, one day, GC-MS comparison with authentic sample. From the text: To test the hypothesis that overexpression of bas1 gene product results in hydroxylation of brassinolide, metabolism of deuterium-labeled and non-labeled brassinolide was examined using aseptically grown seedlings. As possible hydroxylated metabolites of brassinolide, 14-hydroxybrassinolide, 20-hydroxybrassinolide, 25-hydroxybrassinolide, 26-hydroxybrassinolide, and 28-hydroxybrassinolide were chemically synthesized. The possible hydroxylated brassinolide fractions from the feeding experiments were analyzed by gas chromatograph-mass spectrometry (GC-MS) after conversion to methaneboronate-trimethylsilyl derivatives.
In preliminary experiments, bas1-DphyB-4 and phyB-4 seedlings were fed ^2H6-labeled brassinolide (d6-BL) and incubated for one day. […] When BL was fed to the seedlings, 26-OHBL was detected as a metabolite of BL. […] When d6-BL was fed to the seedlings, fragment ions such as m/z 625, 583 and 570 were detected. […]
For brassinosteroid measurements, plants were grown on soil (Neff and Chory, supra) in short day conditions (8 hours of light, […] of dark) for five weeks before rosettes were harvested in liquid nitrogen. […] Brassinosteroids were analyzed according to the methods described by (S. Fujioka et al., Plant Cell 9:1951-1962, 1997). […]
Each fraction was subjected to GC-MS analysis after derivatization. 26-OHBL was detected from retention time of 2-3 min. […]

In the next data set the test system is Arabidopsis seedlings. Briefly: Brassinolide dose response of seedling hypocotyls and cotyledon petioles. The format is in vivo. An excerpt:
FIGS. 3A-C are graphs showing the dose response of hypocotyls of seedlings to brassinosteroid as measured after 6 days on varying levels of brassinolide. […] Col-O=closed circles; phyB-4=open diamonds; bas1-DphyB-4=open circles; BAS1′ antisense line=closed diamonds; and det2-1=open triangles. Error bars represent one standard error from the mean. When no error bars are visible, they are smaller than the symbols.
By contrast, a brassinosteroid biosynthesis mutant det2-1 produced petioles that were shorter than the wild type in the light, while the petioles of phyB-4 mutants were longer than the wild type in the light. In both cases, these phenotypes were rescued by exposure to increasing amounts of brassinosteroids.
(CIDtech Research Inc., Mississauga, Ontario, Canada) 2 mM Brassinolide stock was made by dissolving in 95% (v/v) EtOH and stored at −20° C. The 1 μM solution was made by a 1:2000 fold dilution of the 2 mM stock in standard growth media. All other concentrations including the negative control contained the same amount of EtOH. Light conditions for fluence responses in red and blue light and seedling measurements were performed as described in Neff and Chory, supra. An E30LED growth chamber (Percival Scientific, Boone, IA) supplied far-red light. Far-red fluences were measured with a portable spectroradiometer (model LI-1800, Li-Cor, Inc., Lincoln, Nebr.).

Turning to 2H6-labeled brassinolide [d6-BL], in data set [1], the “metabolite detected after feeding to seedlings” value is given as “d6-26-OHBL”.
For `CC(C)[C@H](C)[C@@H](O)[C@H](O)[C@@H](C)[C@H]1CC[C@H]2[C@@H]3COC(=O)[C@H]4C[C@H](O)[C@H](O)C[C@]4(C)[C@H]3CC[C@]12C` [BL, brassinolide], in data set [1], the “metabolite detected after feeding to seedlings” value is on record as 26-OHBL. For the same compound, in the data set on Arabidopsis seedlings (BAS1 antisense lines, grown in the dark, 6 days), the “hypocotyl hyper-responsivity to brassinolide” value was “not”. Moreover, in the data set on Arabidopsis seedlings (BAS1 antisense lines, grown in the light, 6 days), the “hypocotyl response to brassinolide” value is “hyper-responsivity”. Further, the “rosette response to brassinolide” value in the data set on Arabidopsis seedlings (plants overexpressing bas1 (bas1-DphyB-4), white light) is given as “insensitive”.
